Experimental data as given in article PMC11233931, “Remodeling tumor‐associated macrophage for anti‐cancer effects by rational design of irreversible inhibition of mitogen‐activated protein kinase‐activated protein kinase 2” (MedComm, 2024).

Assays:
Assay in all cases: Eurofins kinase selectivity profile against 380 other human recombinant kinases (Table S2)
Format in all cases: biochemical
[1] = target: T1, 380 human recombinant protein kinases (Homo sapiens, UniProt O15111); settings: IKKα(h), read-out: Inhibition rate
T1 construct: purchased Eurofins (Celle Lévescault)
T1 sequence (O15111 1-745): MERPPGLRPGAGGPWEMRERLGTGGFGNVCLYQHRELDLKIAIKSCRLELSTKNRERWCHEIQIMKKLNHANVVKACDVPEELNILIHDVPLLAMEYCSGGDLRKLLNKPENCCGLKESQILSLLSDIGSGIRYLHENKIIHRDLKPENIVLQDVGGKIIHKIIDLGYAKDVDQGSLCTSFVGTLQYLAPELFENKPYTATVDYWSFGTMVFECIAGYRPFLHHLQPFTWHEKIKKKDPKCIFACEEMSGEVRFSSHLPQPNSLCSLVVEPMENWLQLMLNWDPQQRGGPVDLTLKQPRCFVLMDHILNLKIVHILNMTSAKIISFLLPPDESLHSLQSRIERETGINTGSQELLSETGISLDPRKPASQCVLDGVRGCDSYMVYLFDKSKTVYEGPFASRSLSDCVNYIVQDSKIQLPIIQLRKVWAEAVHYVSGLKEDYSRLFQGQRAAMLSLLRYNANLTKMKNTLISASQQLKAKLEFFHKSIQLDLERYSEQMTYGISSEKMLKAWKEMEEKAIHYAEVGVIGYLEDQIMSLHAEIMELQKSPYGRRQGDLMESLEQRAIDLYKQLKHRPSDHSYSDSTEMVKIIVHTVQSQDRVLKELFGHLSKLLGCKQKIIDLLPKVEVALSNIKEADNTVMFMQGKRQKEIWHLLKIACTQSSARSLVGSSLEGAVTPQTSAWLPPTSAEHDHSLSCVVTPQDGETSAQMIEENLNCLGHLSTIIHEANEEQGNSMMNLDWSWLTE
Procedure: (§1) Subsequently, to ascertain whether the high potency of compound 11 was specific for MK2, an additional 380 human recombinant protein kinases were screened.
(§2) To assess the impact of various compounds on MK2 kinase activity, we utilized the ADP‐Glo Assay Kit (Promega) following the manufacturer's instructions. Luminescence measurements were taken using a SpectraMax Paradigm reader. The inhibition percentage was calculated using the following formula: ((specific signalDMSO control − specific signal inhibitor)/(specific signalDMSO control)) × 100%. The IC50 values were determined employing dose–response curve fitting via Prism (Graph Pad). Additionally, Eurofins company (Celle Lévescault) conducted the analysis on compound 11’s inhibitory activity against 380 other human recombinant kinases at various concentrations.

[2] = target: T2, 380 human recombinant protein kinases (Homo sapiens, UniProt O43318); settings: TAK1(h), read-out: Inhibition rate (%)
T2 construct: purchased Eurofins (Celle Lévescault)
T2 sequence (O43318 1-606): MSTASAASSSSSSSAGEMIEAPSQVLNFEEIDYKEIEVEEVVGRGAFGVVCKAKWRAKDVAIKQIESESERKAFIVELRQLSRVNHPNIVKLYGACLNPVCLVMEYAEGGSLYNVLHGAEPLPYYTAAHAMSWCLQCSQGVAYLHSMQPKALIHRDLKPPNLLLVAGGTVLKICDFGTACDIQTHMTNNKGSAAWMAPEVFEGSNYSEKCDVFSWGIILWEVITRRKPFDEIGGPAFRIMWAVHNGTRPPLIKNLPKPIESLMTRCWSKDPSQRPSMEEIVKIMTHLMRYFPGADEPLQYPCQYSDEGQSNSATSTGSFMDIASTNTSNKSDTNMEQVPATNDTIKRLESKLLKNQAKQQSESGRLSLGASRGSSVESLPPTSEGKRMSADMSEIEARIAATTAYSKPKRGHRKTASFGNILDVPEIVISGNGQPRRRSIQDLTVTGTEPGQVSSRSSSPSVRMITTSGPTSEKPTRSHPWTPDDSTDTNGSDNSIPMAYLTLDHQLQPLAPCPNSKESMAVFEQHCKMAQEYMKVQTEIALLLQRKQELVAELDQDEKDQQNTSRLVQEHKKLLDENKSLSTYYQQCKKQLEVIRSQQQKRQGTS
Procedure: as §1, §2

[3] = target: T3, 380 human recombinant protein kinases (Homo sapiens, UniProt Q96BR1); settings: SGK3(h), read-out: Inhibition rate (%)
T3 construct: purchased Eurofins (Celle Lévescault)
T3 sequence (Q96BR1 1-496): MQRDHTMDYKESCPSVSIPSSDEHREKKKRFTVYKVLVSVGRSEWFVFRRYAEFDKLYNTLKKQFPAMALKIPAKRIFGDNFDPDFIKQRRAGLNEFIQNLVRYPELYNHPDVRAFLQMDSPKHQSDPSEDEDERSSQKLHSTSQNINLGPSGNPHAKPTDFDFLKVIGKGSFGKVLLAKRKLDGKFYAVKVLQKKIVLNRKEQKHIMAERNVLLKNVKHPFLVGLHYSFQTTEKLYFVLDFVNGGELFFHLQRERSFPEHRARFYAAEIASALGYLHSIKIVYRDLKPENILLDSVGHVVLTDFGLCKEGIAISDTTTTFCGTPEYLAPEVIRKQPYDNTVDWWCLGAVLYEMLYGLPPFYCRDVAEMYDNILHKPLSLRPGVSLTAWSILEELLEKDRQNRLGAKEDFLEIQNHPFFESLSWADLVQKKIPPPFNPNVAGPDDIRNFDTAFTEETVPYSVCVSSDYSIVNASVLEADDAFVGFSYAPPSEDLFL
Procedure: as §1, §2

[4] = target: T4, 380 human recombinant protein kinases (Homo sapiens, UniProt Q9Y6E0); settings: MST3(h), read-out: Inhibition rate
T4 construct: purchased Eurofins (Celle Lévescault)
Procedure: as §1, §2

T4 sequence (Q9Y6E0 whole entry): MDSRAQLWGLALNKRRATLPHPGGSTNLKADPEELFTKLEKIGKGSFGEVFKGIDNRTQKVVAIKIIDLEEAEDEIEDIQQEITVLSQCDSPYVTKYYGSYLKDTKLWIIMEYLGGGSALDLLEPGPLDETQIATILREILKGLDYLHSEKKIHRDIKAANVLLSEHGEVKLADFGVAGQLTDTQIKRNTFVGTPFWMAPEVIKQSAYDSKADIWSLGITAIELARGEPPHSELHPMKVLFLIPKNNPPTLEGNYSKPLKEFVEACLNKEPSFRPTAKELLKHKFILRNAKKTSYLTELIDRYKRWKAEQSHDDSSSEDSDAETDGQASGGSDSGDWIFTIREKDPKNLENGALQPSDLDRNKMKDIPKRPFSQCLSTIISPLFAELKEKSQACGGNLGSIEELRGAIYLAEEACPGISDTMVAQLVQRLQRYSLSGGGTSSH

For `C=CC(=O)Nc1cc(-c2cc(-c3cc4c([nH]3)CCNC4=O)ccn2)ccc1OC(F)(F)F` [compound 11], the inhibition at 0.01 µM ([1]; 10 nM) was -15%, the inhibition at 0.1 µM ([1]; 100 nM) was -14% and the inhibition at 1 µM ([1]; 1000 nM) was -5%. It also gave an inhibition at 0.01 µM ([2]; 10 nM) of 9%, an inhibition at 0.1 µM ([2]; 100 nM) of 2% and an inhibition at 1 µM ([2]; 1000 nM) of 47%. It also gave an inhibition at 0.01 µM ([3]; 10 nM) of -8%, an inhibition at 0.1 µM ([3]; 100 nM) of 2% and an inhibition at 1 µM ([3]; 1000 nM) of -4%. The inhibition at 0.01 µM ([4]; 10 nM) was -6%, the inhibition at 0.1 µM ([4]; 100 nM) was 2% and the inhibition at 1 µM ([4]; 1000 nM) was 2%.
